# From patent US6495571B1, “Pyridine compounds, use and preparation thereof” (Southern Research Institute, priority 1999, dated 2002)
# Read-outs that look alike come from different tables or passages of the source.
# What was measured:
# [1] = tested on: SF-295 CNS tumor; assay: In vivo antitumor activity, sc SF-295 xenograft; set-up: species or system Athymic mice (Ncr-nu); conditions: IP 90 mg/kg/dose, Days 9-13
# [2] = tested on: P388/CPA (cyclophosphamide-resistant) leukemia; format: in vivo, CD2F1 female mice; conditions: for 50-DAY SURV./TOTAL / % ILS / APPROX. NET LOG10 CHANGE IN TUMOR BURDEN AT END OF Rx: Q1D × 5 (1)
# [3] = tested on: MCF7 human mammary tumor; assay: In vivo antitumor activity, sc MCF7 xenograft; set-up: species or system Athymic mice (Ncr-nu)
# [4] = tested on: ZR-75-1 human mammary tumor; assay: In vivo antitumor activity, sc ZR-75-1 xenograft; set-up: species or system Athymic mice (Ncr-nu)
# [5] = tested on: human MX-1 mammary tumor (ic, 10^6 cells); assay: In vivo antitumor activity, i.c.-implanted MX-1 xenograft; conditions: for Median % ILS (dying mice only): Days 1-5
# [6] = tested on: human MX-1 mammary tumor (sc, 30-40 mg fragments); assay: In vivo antitumor activity, s.c.-implanted MX-1 xenograft; set-up: species or system Athymic mice (Ncr-nu)
# [7] = tested on: P388/BCNU (carmustine-resistant) leukemia; assay: Antitumor activity against IP-implanted P388/BCNU leukemia
# [8] = tested on: SK-MEL-28 melanoma; assay: In vivo antitumor activity, sc SK-MEL-28 xenograft; set-up: species or system Athymic mice (Ncr-nu); conditions: IP 90 mg/kg/dose, Days 8-12
# [9] = tested on: CAKI-1 human renal tumor; assay: In vivo antitumor activity, sc CAKI-1 xenograft; set-up: species or system Athymic mice (Ncr-nu)
# [10] = tested on: NCI-H82 small cell lung tumor; assay: In vivo antitumor activity, sc NCI-H82 xenograft; set-up: species or system Athymic mice (Ncr-nu)
# [11] = tested on: HT29 human colon tumor; assay: In vivo antitumor activity, sc HT29 xenograft; set-up: species or system Athymic mice (Ncr-nu)
# [12] = tested on: P388/0 murine leukemia
# [13] = tested on: P388/L-PAM (melphalan-resistant) leukemia; conditions: for activity in this tumor model (in words): mouse, in vivo
# [14] = tested on: NCI-H460 nonsmall cell lung tumor; assay: In vivo antitumor activity, sc NCI-H460 xenograft; set-up: species or system Athymic mice (Ncr-nu); conditions: IP 90 mg/kg/dose, Days 6-10
# [15] = tested on: UISO-BCA-1 human mammary tumor; assay: In vivo antitumor activity, sc UISO-BCA-1 xenograft; set-up: species or system Athymic mice (Ncr-nu); conditions: IP 90 mg/kg/dose, Days 16-20
# [16] = tested on: OVCAR-5 ovarian tumor; assay: In vivo antitumor activity, sc OVCAR-5 xenograft; set-up: species or system Athymic mice (Ncr-nu); conditions: IP 90 mg/kg/dose, Days 12-16
# [17] = tested on: U251 human CNS tumor; assay: In vivo antitumor activity, sc U251 xenograft; set-up: species or system Athymic mice (Ncr-nu)
# [18] = 14C-penclomedine, tumor-bearing rats; cited from earlier work
# [19] = one hour infusion for 5 consecutive days, patients; cited from earlier work
# [20] = Cytotoxicity in vitro; format: cell-based
# [21] = rats; cited from earlier work
# [22] = dogs; cited from earlier work
# [23] = highest nontoxic doses evaluated, versus DM-PEN
# [24] = highest nontoxic doses evaluated, versus PEN
# [25] = oral (gavage) 135 mg/kg/dose, Days 13-17
# [26] = IP 60.0 mg/kg/dose, Q1D × 5 (1)
# [27] = IP 90.0 mg/kg/dose, Q1D × 5 (1)
# [28] = IP 135.0 mg/kg/dose, Q1D × 5 (1)
# [29] = optimal doses (LD10 or less), schedule QD1-5, administered LP.
structure (smiles),measurement,setting,value
COc1nc(C(Cl)(Cl)Cl)c(Cl)c(OC(C)=O)c1Cl [DM-A-PEN],T-C,[1],0.7 days
same,Tumor-Free-Surv/Total,[1],0/5
same,50-DAY SURV./TOTAL,[2]; IP 60.0 mg/kg/dose,0/6
same,% ILS,[2]; IP 60.0 mg/kg/dose,+54%
same,APPROX. NET LOG10 CHANGE IN TUMOR BURDEN AT END OF Rx,[2]; IP 60.0 mg/kg/dose,−1.1
same,50-DAY SURV./TOTAL,[2]; IP 90.0 mg/kg/dose,0/6
same,% ILS,[2]; IP 90.0 mg/kg/dose,+86%
same,APPROX. NET LOG10 CHANGE IN TUMOR BURDEN AT END OF Rx,[2]; IP 90.0 mg/kg/dose,−3.1
same,50-DAY SURV./TOTAL,[2]; IP 135.0 mg/kg/dose,0/6
same,APPROX. NET LOG10 CHANGE IN TUMOR BURDEN AT END OF Rx,[2]; IP 135.0 mg/kg/dose,−5.7
same,more active than DM-PEN by log cell kill,[2]; [23],4.6 log cell kill
same,more active than PEN by log cell kill,[2]; [24],7.4 log cell kill
same,T-C,"[3]; IP 60 mg/kg/dose, Days 14-18",7.1 days
same,Tumor-Free-Surv/Total,"[3]; IP 60 mg/kg/dose, Days 14-18",0/5
same,activity (in words),[3]; s.c.-implanted,moderate to modest activity
same,Tumor-Free-Surv/Total,"[4]; IP 60 mg/kg/dose, Days 10-14",0/5
same,Tumor-Free-Surv/Total,"[4]; IP 90 mg/kg/dose, Days 8-12",0/5
same,activity (in words),[4]; s.c.-implanted,moderate to modest activity
same,Median % ILS (dying mice only),[5]; IP 60 mg/kg/dose,+60%
same,Median % ILS (dying mice only),[5]; oral (gavage) 135 mg/kg/dose,+88%
same,T-C,"[6]; IP 60 mg/kg/dose, Days 14-18",>38.3 days
same,Tumor-Free-Surv/Total,"[6]; IP 60 mg/kg/dose, Days 14-18",4/5
same,T-C,"[6]; IP 60 mg/kg/dose, Days 15-19",>37.2 days
same,Tumor-Free-Surv/Total,"[6]; IP 60 mg/kg/dose, Days 15-19",3/5
same,T-C,"[6]; IP 90 mg/kg/dose, Days 12-16",>41.0 days
same,Tumor-Free-Surv/Total,"[6]; IP 90 mg/kg/dose, Days 12-16",5/5
same,IP dosage marked (LD50),"[6]; IP, Days 15-19, sc MX-1 bearing mice",60 (LD50) mg/kg/dose
same,T-C,[6]; [25],>38.5 days
same,Tumor-Free-Surv/Total,[6]; [25],5/5
same,50-DAY SURV./TOTAL,[7]; [26],1/6
same,% ILS,[7]; [26],+44%
same,APPROX. NET LOG10 CHANGE IN TUMOR BURDEN AT END OF Rx,[7]; [26],0
same,MEDIAN DAY OF DEATH,[7]; [26],13.0
same,50-DAY SURV./TOTAL,[7]; [27],0/6
same,% ILS,[7]; [27],+77%
same,APPROX. NET LOG10 CHANGE IN TUMOR BURDEN AT END OF Rx,[7]; [27],−2.3
same,50-DAY SURV./TOTAL,[7]; [28],0/6
same,APPROX. NET LOG10 CHANGE IN TUMOR BURDEN AT END OF Rx,[7]; [28],−4.1
same,Lethality of the dosage (LD mark beside % ILS),[7]; [28],LD17
same,more active than DM-PEN by log cell kill,[7]; [23],1.5 log cell kill
same,more active than PEN by log cell kill,[7]; [24],3.5 log cell kill
same,T-C,[8],0.7 days
same,Tumor-Free-Surv/Total,[8],0/5
same,T-C,"[9]; IP 90 mg/kg/dose, Days 19-23",8.4 days
same,Tumor-Free-Surv/Total,"[9]; IP 90 mg/kg/dose, Days 19-23",0/5
same,activity (in words),[9]; s.c.-implanted,moderate to modest activity
same,T-C,"[10]; IP 60 mg/kg/dose, Days 13-17",7.2 days
same,Tumor-Free-Surv/Total,"[10]; IP 60 mg/kg/dose, Days 13-17",0/5
same,activity (in words),[10]; s.c.-implanted,moderate to modest activity
same,T-C,"[11]; IP 90 mg/kg/dose, Days 14-18",5.8 days
same,Tumor-Free-Surv/Total,"[11]; IP 90 mg/kg/dose, Days 14-18",0/5
same,activity (in words),[11]; s.c.-implanted,moderate to modest activity
same,50-DAY SURV./TOTAL,[12]; [26],0/6
same,% ILS,[12]; [26],+72%
same,APPROX. NET LOG10 CHANGE IN TUMOR BURDEN AT END OF Rx,[12]; [26],−3.1
same,50-DAY SURV./TOTAL,[12]; [27],0/6
same,% ILS,[12]; [27],+95%
same,APPROX. NET LOG10 CHANGE IN TUMOR BURDEN AT END OF Rx,[12]; [27],−5.0
same,50-DAY SURV./TOTAL,[12]; [28],0/6
same,% ILS,[12]; [28],+150%
same,APPROX. NET LOG10 CHANGE IN TUMOR BURDEN AT END OF Rx,[12]; [28],ca −6.8
same,Lethality of the dosage (LD mark beside % ILS),[12]; [28],LD33
same,more active than DM-PEN by log cell kill,[12]; [23],1.9 log cell kill
same,more active than PEN by log cell kill,[12]; [24],0.4 log cell kill
same,50-DAY SURV./TOTAL,[13]; [26],0/6
same,% ILS,[13]; [26],+14%
same,APPROX. NET LOG10 CHANGE IN TUMOR BURDEN AT END OF Rx,[13]; [26],+1.2
same,50-DAY SURV./TOTAL,[13]; [27],0/6
same,% ILS,[13]; [27],+14%
same,APPROX. NET LOG10 CHANGE IN TUMOR BURDEN AT END OF Rx,[13]; [27],+1.2
same,50-DAY SURV./TOTAL,[13]; [28],0/6
same,% ILS,[13]; [28],+35%
same,APPROX. NET LOG10 CHANGE IN TUMOR BURDEN AT END OF Rx,[13]; [28],−0.8
same,Lethality of the dosage (LD mark beside % ILS),[13]; [28],LD17
same,MEDIAN DAY OF DEATH,[13]; [28],19.8
same,more active than PEN or DM-PEN by log cell kill,"[13]; highest nontoxic doses evaluated, versus PEN or DM-PEN",0.2-0.3 log cell kill
same,activity in this tumor model (in words),[13],none of the three showed significant activity
same,T-C,[14],-0.6 days
same,Tumor-Free-Surv/Total,[14],0/5
same,T-C,[15],-2.4 days
same,Tumor-Free-Surv/Total,[15],0/5
same,T-C,[16],4.0 days
same,Tumor-Free-Surv/Total,[16],0/5
same,Tumor-Free-Surv/Total,"[17]; IP 90 mg/kg/dose, Days 19-23",0/5
same,activity (in words),[17]; s.c.-implanted,moderate to modest activity
"COc1nc(C(Cl)(Cl)Cl)c(Cl)c(OC)c1Cl [PEN, 3,5-dichloro-2,4-dimethoxy-6-(trichloromethyl)pyridine]",radioactive species in the brain,[18],predominant radioactive species in the brain
same,50-DAY SURV./TOTAL,[2]; IP 60.0 mg/kg/dose,0/6
same,% ILS,[2]; IP 60.0 mg/kg/dose,−5%
same,50-DAY SURV./TOTAL,[2]; IP 90.0 mg/kg/dose,0/6
same,% ILS,[2]; IP 90.0 mg/kg/dose,−5%
same,50-DAY SURV./TOTAL,[2]; IP 135.0 mg/kg/dose,0/6
same,% ILS,[2]; IP 135.0 mg/kg/dose,−5%
same,cures,[5]; Table 2 conditions,not
same,Median % ILS (based on dying mice only),[5]; [29],88%
same,Survivors,[5]; [29],0/5
same,"neurotoxicity (dysmetria, ataxia, vertigo)",[19],principal dose limiting toxicity
same,50-DAY SURV./TOTAL,[7]; [26],0/6
same,% ILS,[7]; [26],−6%
same,50-DAY SURV./TOTAL,[7]; [27],0/6
same,% ILS,[7]; [27],0%
same,MEDIAN DAY OF DEATH,[7]; [27],9.0
same,50-DAY SURV./TOTAL,[7]; [28],0/6
same,% ILS,[7]; [28],+27%
same,activity as cytotoxic agents in vitro,[20],inactive
same,"neurotoxicity (muscle tremors, incoordination, convulsions, reduced activity)",[21],Dose related neurotoxicity
same,50-DAY SURV./TOTAL,[12]; [26],0/6
same,50-DAY SURV./TOTAL,[12]; [27],0/6
same,APPROX. NET LOG10 CHANGE IN TUMOR BURDEN AT END OF Rx,[12]; [27],−0.8
same,50-DAY SURV./TOTAL,[12]; [28],0/6
same,APPROX. NET LOG10 CHANGE IN TUMOR BURDEN AT END OF Rx,[12]; [28],−4.8
same,50-DAY SURV./TOTAL,[13]; [26],0/6
same,50-DAY SURV./TOTAL,[13]; [27],0/6
same,50-DAY SURV./TOTAL,[13]; [28],0/6
same,activity in this tumor model (in words),[13],none of the three showed significant activity
same,plasma penclomedine levels associated with severe emesis and seizures,[22],above 30 μM
